This experiment deals with NIH3T3-HGL HSF-1 response element luciferase, 48 h. The experiment in a line: HSF-1 reporter activators over prolonged exposure, confirmation, cell-based, mouse, luciferase, cherry-pick, dose (AID 602296).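 Also: test compounds applied by themselves with no MG132 co-treatment.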

Inconclusive results are not listed. Activity calls are given as the source filed them.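 The calls were made as follows: active = fitted activation curve crossing 40% at a concentration no higher than the sample's top valid tested dose; inconclusive = flat fitted curve at 30% to 70% activation, or poor curve fit; inactive = signal decrease, flat curve within 30%, or the rest.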 A value given as a limit tells only on which side of the number the result lay.

In the case of `O=C1c2ccccc2C(=O)N1CCC(=O)N1CCCc2ccccc21`, the AC40 was > 26 µM (inactive).

On to `Cc1nc2ncnn2c(C)c1CCC(=O)NCc1ccco1`, for which the AC40 is > 26 µM (inactive).

Consider `Cc1[nH]n(-c2ccccc2)c(=O)c1C=NCCc1ccccc1`, for which the AC40 is 9.52 µM.

`Cc1ccc(N2C(=O)CCC2(C#N)c2ccccc2)cc1` (stereo not drawn): the AC40 was > 26 µM (inactive).

`O=C(NNc1c(Cl)cccc1Cl)C1CCC1`: the AC40 is 23.5 µM.

With `c1ccc2[nH]c3cc4ncnc4cc3nc2c1`, the AC40 is 5.43 µM.

As to `CCN(CCNC(=O)CN1CCN(Cc2ccc(Cl)cc2)C1=O)c1ccccc1`, the AC40 was 20.9 µM.

On to `Cc1cccc(NCc2nc3ccccc3n2C)c1`, for which the AC40 was 1.61 µM.

`O=C(N/N=C/c1ccncc1)c1cc2ccccc2cc1O`: the AC40 was 25.2 µM.

Consider `Cc1ccc(CNC(=O)CSc2ccsc2[N+](=O)[O-])cc1`, for which the AC40 is 0.83 µM.

With `COC(=O)C1(O)CC(CC(C)C)=NN1C(=O)c1ccccc1` (stereo not drawn), the AC40 is 20.3 µM.

`c1ccc(SCCOCCN2CCOCC2)cc1`: the AC40 is > 26 µM (inactive).

For `NC(=O)c1nn(-c2ccccc2)nc1NC(=O)CN1CCCCC1`, the AC40 was > 26 µM (inactive).

For the molecule `CN1C(=O)C2C(c3ccc(N(C)C)cc3)=NN(Cc3ccccc3)C2C1=O` (stereo not drawn), the AC40 was > 26 µM (inactive).

For the molecule `Cc1ccc(NC(=O)N2CCCC2C(=O)Nc2c(C)cc(C)cc2C)cc1` (stereo not drawn), the AC40 is > 26 µM (inactive).

As for `c1ccc(COc2ccccc2CNC2CCCC2)cc1`, the AC40 is > 26 µM (inactive).

For the molecule `O=C1C2CC=CCC2C(=O)N1c1ccc(NCCc2ccccc2)c([N+](=O)[O-])c1` (stereo not drawn), the AC40 is 3.31 µM.

In the case of `COc1ccc(C2/C=C\CN(S(=O)(=O)/C=C/c3ccccc3)[C@H](Cc3ccccc3)C(=O)N2Cc2ccc(F)cc2)cc1` (stereo partly drawn), the AC40 was > 26 µM (inactive).

For `O=C1CCCN1CCCN=c1c([N+](=O)[O-])nn(-c2ccc(Cl)cc2)n1O`, the AC40 was > 12 µM (inactive).

With `O=c1[nH]c2ccc(S(=O)(=O)Nc3ccc(-c4nnc5n4CCCCC5)cc3)cc2o1`, the AC40 was > 26 µM (inactive).

On to `CC(CC#CCN1CCOCC1)OCCC#N` (stereo not drawn), for which the AC40 is > 26 µM (inactive).

For `Oc1ccc(NC(=S)Nc2ccccc2)cc1`, the AC40 is > 26 µM (inactive).

As to `CCN(CC)C(=O)c1ccc(C)c(Br)c1`, the AC40 is > 26 µM (inactive).

Turning to `C[C@H](NC(=O)[C@@H]1CSC2c3ccccc3C(=O)N21)C(=O)NCCc1ccccc1` (stereo partly drawn), the AC40 is 24.7 µM.

Take `Cc1ccccc1CSc1nsc(N)n1`: the AC40 is 16.5 µM.

For the molecule `Cc1ccc2oc(C(=O)N3CCC(O)(c4cccc(C(F)(F)F)c4)CC3)c(C)c2c1`, the AC40 is 9.28 µM.

`Cc1[nH]c2ccccc2c1/C=C(\C#N)C(=O)NCC1CCCO1` (stereo not drawn): the AC40 is 9.18 µM.

Consider `CSc1ccc(Cl)c(C(=O)OCC(=O)N(C)CCC#N)c1`, for which the AC40 was > 26 µM (inactive).

Take `Nc1c(-c2ccsc2)cnc2ncnn12`: the AC40 is > 26 µM (inactive).

Consider `CN(Cc1nnc(-c2ccc(F)cc2)o1)c1ccccc1`, for which the AC40 is 9.33 µM.

As to `COC(=O)/C=C1/N/C(=N\c2nc(C)cc(C)n2)N(c2ccc(C)c(C)c2)C1=O`, the AC40 was > 26 µM (inactive).

Take `O=c1[nH]c2ccccc2n1CCC1CCCCC1`: the AC40 was 5.36 µM.

Consider `O=C(CN1C(=O)NC2(CCCC2)C1=O)NCCN1C(=O)S/C(=C\c2ccccc2F)C1=O`, for which the AC40 is > 26 µM (inactive).

Turning to `CC(C)C(=O)N1CCC(n2nccc2NC(=O)CCOc2ccccc2)CC1`, the AC40 was 7.78 µM.

Regarding `O=C(N/N=C/CCc1ccccc1)c1ccccc1`, the AC40 is 15.5 µM.

Turning to `CC(=O)Nc1nnc(SCC(=O)c2ccc(F)cc2)s1`, the AC40 is 17.4 µM.

In the case of `Cc1cc(C)cc(OCC(O)CN2C(=O)NC(C)(C)C2=O)c1` (stereo not drawn), the AC40 was > 26 µM (inactive).

Turning to `COC(=O)C(C)Sc1nc2c(c(=O)n(C)c(=O)n2C)n1CCC(C)C` (stereo not drawn), the AC40 was > 26 µM (inactive).

In the case of `O=C1c2cccc3c([N+](=O)[O-])ccc(c23)C(=O)N1O`, the AC40 is > 26 µM (inactive).

In the case of `Cc1ccccc1/[N+]([O-])=C/c1cccs1`, the AC40 was > 26 µM (inactive).

Take `CCCc1nc(SCC(=O)Nc2cc(C)on2)c2ccccc2n1`: the AC40 is > 26 µM (inactive).

As to `S=c1[nH]nc(-c2ccccc2)n1/N=C/c1ccc(-c2ccccc2Cl)o1`, the AC40 was > 12 µM (inactive).

On to `Cc1cc(-c2ccc(C(C)C)c(S(=O)(=O)NCCN3CCC(C)CC3)c2)on1`, for which the AC40 was > 26 µM (inactive).

For the origin of these results see PubChem BioAssay AID602296 (Broad Institute, 2012).
